Test results published in publication PMC5760710, “The evolution of substrate discrimination in macrolide antibiotic resistance enzymes” (Nature Communications, 2018).
≈ marks a conversion by molar mass, not a printed value.

Legend:
[1] = tested on: T1, E. coli BW25113 ΔbamBΔtolC; test: microbe, parasite or virus in culture; settings: Escherichia coli, BW25113, 24 h; empty vector
T1 construct: BW25113 ΔbamBΔtolC empty vector pGDP4
Protocol: (§1) mphB was codon optimized, synthetized as a gBlock (IDT) and cloned into pET28a with an N-terminal histidine tag. The codon optimized mphB sequence is in Supplementary Table 17. mphI was previously cloned into pET22b[36]. pGDP4 is a derivative of pET28a with the multiple-cloning site under the control of the constitutive lac promoter. mphI was subcloned into pGDP4 using the XbaI and XhoI restriction sites. E. coli was routinely cultured on LB-Lennox (Bioshop) at 37 °C overnight, and either 100 µg mL^−1 ampicillin or 50 µg mL^−1 kanamycin was used for plasmid selection. E. coli TOP10 (Invitrogen) was used for routine cloning experiments and susceptibility testing of mphs cloned into pGDP4. E. coli BL21(DE3) (Stratagene, USA)was used for protein overexpression experiments. E. coli BW25113 ΔbamBΔtolC is an antibiotic hypersensitive, and was used for susceptibility testing of Mphs cloning into pGDP4. Antibiotic susceptibility testing was performed according to the Clinical and Laboratory Standards Institute guidelines[74] for determining minimal inhibitory concentration (MIC) in 96-well plates (Sarstedt, Germany) in duplicate. MIC values were reproducible. A saline suspension of OD600 of 0.1 was made from 2–3 colonies of a fresh overnight, and diluted 1:200 into Mueller-Hinton Broth (BD Biosciences). […] Susceptibility assays were performed at least two independent times.

MphK = molecular target: T2, MphK (Bacillus subtilis, UniProt P42242); design: PK/LDH-coupled continuous assay of macrolide phosphorylation; steady-state kinetics, NADH absorbance; settings: substrate inhibition
T2 construct: full-length, His-tagged, expressed in E. coli BL21(DE3), Ni-NTA purified
T2 sequence (P42242 whole entry): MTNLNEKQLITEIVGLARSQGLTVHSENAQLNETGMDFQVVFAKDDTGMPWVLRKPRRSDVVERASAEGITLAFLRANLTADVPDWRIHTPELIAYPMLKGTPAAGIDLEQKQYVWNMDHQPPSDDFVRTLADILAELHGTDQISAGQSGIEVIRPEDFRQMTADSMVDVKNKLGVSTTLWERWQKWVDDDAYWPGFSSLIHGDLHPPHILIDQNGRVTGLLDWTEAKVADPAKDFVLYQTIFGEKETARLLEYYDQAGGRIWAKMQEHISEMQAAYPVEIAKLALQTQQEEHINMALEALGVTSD
Protocol: Steady-state kinetics for Mphs were measured using the continuous PK/LDH-coupled assay[27],[32],[36],[71]. Reactions were performed in 96-well plates (Nunc, Thermo Scientific) using Spectramax Plus384 (Molecular Devices) in duplicate. Individual reactions were 100 µL and contained 50 mM HEPES pH 7.5, 40 mM KCl, 10 mM MgCl2, 0.2 mM NADH, 3.5 mM PEP, and 4.8 U PK/LDH (pyruvate kinase/lactate dehydrogenase). […] For determining the Km for macrolides, GTP was maintained at 200 µM and macrolides were varied between 0.49 µM and 1000 µM. Enzyme efficiency varied considerably between substrates, and therefore some enzymes were used at different concentrations depending on the substrate in order to produce a linear range suitable for Km determination. These concentrations were as follows; MphB 140 nM (most substrates), MphB 36 nM (josamycin), MphI 45 nM (descladinose macrolides), MphI 1.44 µM (C3 cladinose macrolides), Azi_1.1 90 nM (all substrates), Ery_1 (all substrates), MphK 680 nM (all substrates), MphIS111R/T166E/P211L 90 nM (descladinose macrolides), MphIS111R/T166E/P211L 1.43 µM (C3 cladinose macrolides), MphIM40A/S111R/T166E 22 nM (descladinose macrolides), MphIM40A/S111R/T166E 430 nM (C3 cladinose macrolides), MphIS111R/T166E 22 nM (descladinose macrolides), MphIS111R/T166E 1.43 µM (C3 cladinose macrolides). Enzyme kinetics experiments were performed at least two independent times. […]

MphB = molecular target: T3, MphB (Escherichia coli, UniProt A0A0H3EUF3); test: biochemical; design: PK/LDH-coupled continuous assay of macrolide phosphorylation; steady-state kinetics, NADH absorbance; settings: substrate inhibition
T3 construct: codon-optimized gene, N-terminal His tag in pET28a, expressed in E. coli BL21(DE3), Ni-NTA purified
Protocol: Steady-state kinetics for Mphs were measured using the continuous PK/LDH-coupled assay[27],[32],[36],[71]. Reactions were performed in 96-well plates (Nunc, Thermo Scientific) using Spectramax Plus384 (Molecular Devices) in duplicate. Individual reactions were 100 µL and contained 50 mM HEPES pH 7.5, 40 mM KCl, 10 mM MgCl2, 0.2 mM NADH, 3.5 mM PEP, and 4.8 U PK/LDH (pyruvate kinase/lactate dehydrogenase). […] For determining the Km for macrolides, GTP was maintained at 200 µM and macrolides were varied between 0.49 µM and 1000 µM. Enzyme efficiency varied considerably between substrates, and therefore some enzymes were used at different concentrations depending on the substrate in order to produce a linear range suitable for Km determination. These concentrations were as follows; MphB 140 nM (most substrates), MphB 36 nM (josamycin), MphI 45 nM (descladinose macrolides), MphI 1.44 µM (C3 cladinose macrolides), Azi_1.1 90 nM (all substrates), Ery_1 (all substrates), MphK 680 nM (all substrates), MphIS111R/T166E/P211L 90 nM (descladinose macrolides), MphIS111R/T166E/P211L 1.43 µM (C3 cladinose macrolides), MphIM40A/S111R/T166E 22 nM (descladinose macrolides), MphIM40A/S111R/T166E 430 nM (C3 cladinose macrolides), MphIS111R/T166E 22 nM (descladinose macrolides), MphIS111R/T166E 1.43 µM (C3 cladinose macrolides). Enzyme kinetics experiments were performed at least two independent times. Steady-state kinetics of Mphs

[2] = tested on: T4, E. coli BW25113 ΔbamBΔtolC (vector); test: microbe, parasite or virus in culture; design: CLSI broth microdilution MIC in Mueller-Hinton broth; settings: Escherichia coli, BW25113, 24 h
T4 construct: BW25113 ΔbamBΔtolC, empty vector
Protocol: as §1

Compound | MIC [1] [µg/mL] | Ki (MphK) [µM] | Ki (MphB) [µM] | MIC [2] [µg/mL]
CO[C@@H]1[C@@H](O[C@@H]2O[C@H](C)[C@@H](O[C@H]3C[C@@](C)(O)[C@@H](O)[C@H](C)O3)[C@H](N(C)C)[C@H]2O)[C@@H](CC=O)C[C@@H](C)[C@@H](O[C@H]2CC[C@H](N(C)C)[C@@H](C)O2)/C=C/C=C/C[C@@H](C)OC(=O)C[C@H]1O [Spiramycin] | 2 (≈ 2.37 µM) | 750 ± 160 | 39 ± 16 | –
CO[C@@H]1[C@@H](O[C@@H]2O[C@H](C)[C@@H](O[C@H]3C[C@@](C)(O)[C@@H](OC(=O)CC(C)C)[C@H](C)O3)[C@H](N(C)C)[C@H]2O)[C@@H](CC=O)C[C@@H](C)[C@@H](O)/C=C/C=C/C[C@@H](C)OC(=O)C[C@H]1OC(C)=O [josamycin] | – | – | – | 2 to 4 (≈ 2.42 to 4.83 µM)
